Laboratory results published in PMC10010643 (Cancer Chemotherapy and Pharmacology, 2023).

Experiment: Safety and tolerability, Part A single ascending-dose phase in healthy participants
Assay type: in vivo, human
Procedure: A further two cohorts were recruited. […] Each individual participated in one treatment period only, with the exception of the food-effect cohort (cohort A3) in which there were two treatment periods separated by at least 7 days washout. Participants resided at the Clinical Research Unit (CRU) from 1 day ahead of dosing (day − 1) to day 3 and returned for a follow-up visit 5–7 days after their final dose. For all cohorts, doses were administered in the fasted state in the morning of day 1 of Treatment Period 1. In the food-effect cohort, doses were given 30 min after the start of a high-fat breakfast (973 calories total: approximately 150 protein calories, 250 carbohydrate calories, and 500–600 fat calories) on day 1 of Treatment Period 2. For cohorts A1 to A5 in Treatment Period 1, dosing occurred such that one pair (one active and one placebo) were dosed at least 24 h before the remaining participants. Continuation to dose those who remained was at the investigator’s discretion. Escalating doses were administered following satisfactory sponsor and investigator review of the safety and tolerability data (up to 48 h post-final dose) and PK data (up to 24 h post-final dose) from the lower dose levels.
Safety and tolerability assessments included adverse event (AE) monitoring, physical examinations, laboratory assessments (hematology, clinical chemistry, and urinalysis), vital signs (blood pressure, pulse rate, and body temperature) and ECG.
No formal statistical assessment was performed for the safety analysis.

[1] = Part A 50 mg (1 x 50 mg), fasted

Compound: OC[C@H]1O[C@H](Sc2cncc(Br)c2)[C@H](O)[C@@H](n2cc(-c3cc(F)c(F)c(F)c3)nn2)[C@H]1O [GB1211]
- Effect of food intake or capsule formulation on TEAEs (Part A): no effect
- Participants with a TEAE possibly related to treatment, GB1211 (Part A): 3
- Treatment- or dose-related trend in TEAEs (Part A): no apparent treatment- or dose-related trend
- TEAE Back pain, no. of AEs (Part A 5 mg, fasted): 1
- TEAE Back pain, participants (Part A 5 mg, fasted): 1 (16.7%) n (%)
- TEAE Constipation, participants (Part A 5 mg, fasted): 0 n (%)
- TEAE Cough, participants (Part A 5 mg, fasted): 0 n (%)
- TEAE Decreased appetite, participants (Part A 5 mg, fasted): 0 n (%)
- TEAE Diarrhea, no. of AEs (Part A 5 mg, fasted): 1
- TEAE Diarrhea, participants (Part A 5 mg, fasted): 1 (16.7%) n (%)
- TEAE Dry mouth, participants (Part A 5 mg, fasted): 0 n (%)
- TEAE Dry skin, participants (Part A 5 mg, fasted): 0 n (%)
- TEAE Dyspepsia, participants (Part A 5 mg, fasted): 0 n (%)
- TEAE Gastrointestinal disorders, no. of AEs (Part A 5 mg, fasted): 1
- TEAE Gastrointestinal disorders, participants (Part A 5 mg, fasted): 1 (16.7%) n (%)
- TEAE General disorders and administration site conditions, no. of AEs (Part A 5 mg, fasted): 1
- TEAE General disorders and administration site conditions, participants (Part A 5 mg, fasted): 1 (16.7%) n (%)
- TEAE Headache, participants (Part A 5 mg, fasted): 0 n (%)
- TEAE Infections and infestations, no. of AEs (Part A 5 mg, fasted): 1
- TEAE Infections and infestations, participants (Part A 5 mg, fasted): 1 (16.7%) n (%)
- TEAE Injury, poisoning and procedural complications, participants (Part A 5 mg, fasted): 0 n (%)
- TEAE Medical device site reaction, no. of AEs (Part A 5 mg, fasted): 1
- TEAE Medical device site reaction, participants (Part A 5 mg, fasted): 1 (16.7%) n (%)
- TEAE Metabolism and nutrition disorders, participants (Part A 5 mg, fasted): 0 n (%)
- TEAE Musculoskeletal and connective tissue disorders, no. of AEs (Part A 5 mg, fasted): 1
- TEAE Musculoskeletal and connective tissue disorders, participants (Part A 5 mg, fasted): 1 (16.7%) n (%)
- TEAE Nasopharyngitis, no. of AEs (Part A 5 mg, fasted): 1
- TEAE Nasopharyngitis, participants (Part A 5 mg, fasted): 1 (16.7%) n (%)
- TEAE Nervous system disorders, participants (Part A 5 mg, fasted): 0 n (%)
- TEAE Pain, participants (Part A 5 mg, fasted): 0 n (%)
- TEAE Rash, participants (Part A 5 mg, fasted): 0 n (%)
- TEAE Respiratory, thoracic and mediastinal disorders, participants (Part A 5 mg, fasted): 0 n (%)
- TEAE Skin and subcutaneous tissue disorders, participants (Part A 5 mg, fasted): 0 n (%)
- TEAE Wound, participants (Part A 5 mg, fasted): 0 n (%)
- TEAE Back pain, participants (Part A 20 mg, fasted): 0 n (%)
- TEAE Constipation, participants (Part A 20 mg, fasted): 0 n (%)
- TEAE Cough, participants (Part A 20 mg, fasted): 0 n (%)
- TEAE Decreased appetite, participants (Part A 20 mg, fasted): 0 n (%)
- TEAE Diarrhea, participants (Part A 20 mg, fasted): 0 n (%)
- TEAE Dry mouth, participants (Part A 20 mg, fasted): 0 n (%)
- TEAE Dry skin, participants (Part A 20 mg, fasted): 0 n (%)
- TEAE Dyspepsia, participants (Part A 20 mg, fasted): 0 n (%)
- TEAE Gastrointestinal disorders, participants (Part A 20 mg, fasted): 0 n (%)
- TEAE General disorders and administration site conditions, no. of AEs (Part A 20 mg, fasted): 1
- TEAE General disorders and administration site conditions, participants (Part A 20 mg, fasted): 1 (16.7%) n (%)
- TEAE Headache, participants (Part A 20 mg, fasted): 0 n (%)
- TEAE Infections and infestations, participants (Part A 20 mg, fasted): 0 n (%)
- TEAE Injury, poisoning and procedural complications, participants (Part A 20 mg, fasted): 0 n (%)
- TEAE Medical device site reaction, participants (Part A 20 mg, fasted): 0 n (%)
- TEAE Metabolism and nutrition disorders, participants (Part A 20 mg, fasted): 0 n (%)
- TEAE Musculoskeletal and connective tissue disorders, participants (Part A 20 mg, fasted): 0 n (%)
- TEAE Nasopharyngitis, participants (Part A 20 mg, fasted): 0 n (%)
- TEAE Nervous system disorders, participants (Part A 20 mg, fasted): 0 n (%)
- TEAE Pain, no. of AEs (Part A 20 mg, fasted): 1
- TEAE Pain, participants (Part A 20 mg, fasted): 1 (16.7%) n (%)
- TEAE Rash, participants (Part A 20 mg, fasted): 0 n (%)
- TEAE Respiratory, thoracic and mediastinal disorders, participants (Part A 20 mg, fasted): 0 n (%)
- TEAE Skin and subcutaneous tissue disorders, participants (Part A 20 mg, fasted): 0 n (%)
- TEAE Wound, participants (Part A 20 mg, fasted): 0 n (%)
- TEAE Back pain, participants [1]: 0 n (%)
- TEAE Constipation, participants [1]: 0 n (%)
- TEAE Cough, no. of AEs [1]: 1
- TEAE Cough, participants [1]: 1 (16.7%) n (%)
- TEAE Decreased appetite, participants [1]: 0 n (%)
- TEAE Diarrhea, participants [1]: 0 n (%)
- TEAE Dry mouth, participants [1]: 0 n (%)
- TEAE Dry skin, participants [1]: 0 n (%)
- TEAE Dyspepsia, participants [1]: 0 n (%)
- TEAE Gastrointestinal disorders, participants [1]: 0 n (%)
- TEAE General disorders and administration site conditions, participants [1]: 0 n (%)
- TEAE Headache, participants [1]: 0 n (%)
- TEAE Infections and infestations, participants [1]: 0 n (%)
- TEAE Injury, poisoning and procedural complications, participants [1]: 0 n (%)
- TEAE Medical device site reaction, participants [1]: 0 n (%)
- TEAE Metabolism and nutrition disorders, participants [1]: 0 n (%)
- TEAE Musculoskeletal and connective tissue disorders, participants [1]: 0 n (%)
- TEAE Nasopharyngitis, participants [1]: 0 n (%)
- TEAE Nervous system disorders, participants [1]: 0 n (%)
